# Data reported in patent US5925664A, “Method for treating ocular hypertension and glaucoma” (Sankyo Company, Limited, priority 1994, dated 1999).
# Columns and labels:
# [1] = eye application; cited from earlier work
# [2] = test system: ocular hypertension model; experiment: Ocular tension lowering effect in rabbit ocular hypertension model (eye drops); format: in vivo, New Zealand white rabbits; conditions: 50 μl by dropping; for AUC (area between the ocular tension curves of control group and drug application group): over 2 hours; for Maximum value of the lowered ocular tension: over 2 hours at intervals of 30 minutes
# Protocol: New Zealand white rabbits each weighing 2 to 3 kg were used.
# According to the method reported by Kurihara et al. [Ophthalmologic Pharmacology 4, 62-64, (1990)], an ocular hypertension model was prepared to examine the ocular tension lowering effect of the test compounds. After general anaesthesia with urethane, the ocular tension of the test rabbit was determined by use of a tonometer (Alcon Applanation Pneumatonography).
# After a local anaesthetic was applied to the rabbit eye by dropping, 0.1 ml of 5% sodium chloride solution was injected into the vitreous body through a 30-gauge injection needle. At the time, 30 minutes after injection, when ocular hypertension was confirmed, 50 μl of a sample solution was applied by dropping. Then, the ocular tension was determined over 2 hours at intervals of 30 minutes.
# The area (AUC) between the ocular tension curve obtained from the control group (without drug application) and that obtained from the drug application group, and the maximum value of the lowered ocular tension were calculated to regard as the indices of ocular tension lowering effect.
SMILES,AUC (area between the ocular tension curves of control group and drug application group) ([2]; applied concentration 1.0%),Maximum value of the lowered ocular tension ([2]; applied concentration 1.0%),also measured
CCCCC(=O)N(Cc1ccc(-c2ccccc2-c2nnn[nH]2)cc1)[C@H](C(=O)O)C(C)C [CGP 48933],,,ocular tension lowering activity [1]: showed ocular tension lowering activity
CCCCC(=O)N(Cc1ccc(-c2ccccc2-c2nnn[nH]2)cc1)CC1(C(=O)O)CCCC1 [CGP 49870],,,ocular tension lowering activity [1]: showed ocular tension lowering activity
CCCc1nc(C(C)(C)O)c(C(=O)O)n1Cc1ccc(-c2ccccc2-c2nn[nH]n2)cc1 [Compound A],11.18 mmHg · hr,9.8 mmHg,
CCCc1nc(C(C)(C)O)c(C(=O)O)n1Cc1ccc(-c2ccccc2C(=O)O)cc1 [Compound B],3.21 mmHg · hr,2.6 mmHg,
CCCc1nc(C(C)C)c(C(=O)O)n1Cc1ccc(-c2ccccc2-c2nn[nH]n2)cc1 [Compound C],3.98 mmHg · hr,2.7 mmHg,
CCCc1nc(CC)c(C(=O)O)n1Cc1ccc(-c2ccccc2-c2nn[nH]n2)cc1 [Compound D],,,AUC (area between the ocular tension curves of control group and drug application group) ([2]; applied concentration 0.2%): 6.21 mmHg · hr; Maximum value of the lowered ocular tension ([2]; applied concentration 0.2%): 6.4 mmHg
CCCCc1nc(C(C)(C)O)c(C(=O)O)n1Cc1ccc(-c2ccccc2C(=O)O)cc1 [Compound E],4.90 mmHg · hr,7.6 mmHg,
CCCc1nc(C(C)(C)O)c(C(=O)O)n1Cc1ccc(-c2nn[nH]n2)cc1 [Compound F],4.93 mmHg · hr,4.7 mmHg,
CCCc1nc(C(C)O)c(C(=O)O)n1Cc1ccc(-c2ccccc2-c2nn[nH]n2)cc1 (stereo not drawn) [Compound G],5.45 mmHg · hr,8.6 mmHg,
CCCc1nc(C(C)(C)O)c(C(=O)O)n1Cc1ccc(-c2ccccc2C(=O)C(=O)O)cc1 [Compound H],5.58 mmHg · hr,8.6 mmHg,
CCc1nc2cccc(C(=O)O)c2n1Cc1ccc(-c2ccccc2C(=O)C(=O)O)cc1 [Compound I],5.33 mmHg · hr,7.3 mmHg,
"CCCCc1nc(Cl)c(CO)n1Cc1ccc(-c2ccccc2-c2nnn[nH]2)cc1 [DUP 753, reference compound]",0.28 mmHg · hr,1.3 mmHg,AUC (area between the ocular tension curves of control group and drug application group) ([2]; applied concentration 3.0%): 2.38 mmHg · hr; Maximum value of the lowered ocular tension ([2]; applied concentration 3.0%): 3.5 mmHg
